Results from patent publication US10004701B2, “Methods and compositions for treating infection” (UNIVERSITY OF ROCHESTER, priority 2012, dated 2018).
Structures can show the parent of a compound that is named as a salt. Where two headings read alike, the source gives them in different places.

Assays:
Assay in all cases: AK assay 384-well format, Prestwick library screening
K. pneumoniae = format: cell-based, Klebsiella pneumoniae; settings: 50 μM final drug concentration; for fold induction at 50 µM: Klebsiella pneumoniae, 3 h
P. aeruginosa = format: cell-based, Pseudomonas aeruginosa; settings: 50 μM final drug concentration; for fold induction at 50 µM: Pseudomonas aeruginosa, 3 h
[1] = test system: A. baumannii strain 98-37-09; format: cell-based, Acinetobacter baumannii; settings: 50 μM final drug concentration; for fold induction at 50 µM: Acinetobacter baumannii, 983709, 3 h
E. coli = format: cell-based, Escherichia coli; settings: 50 μM final drug concentration; for fold induction at 50 µM: Escherichia coli, 3 h
E. faecium = format: cell-based, Enterococcus faecium; settings: 50 μM final drug concentration; for fold induction at 50 µM: Enterococcus faecium, 3 h
E. cloacae = format: cell-based, Enterobacter cloacae; settings: 50 μM final drug concentration; for fold induction at 50 µM: Enterobacter cloacae, 3 h
[2] = test system: S. aureus strain USA300-0114; format: cell-based, Staphylococcus aureus; settings: 50 μM final drug concentration; for fold induction at 50 µM: Staphylococcus aureus, USA300, 3 h
[3] = cutoff for positive-scoring molecules 3-fold increase, read-out: AK-based Prestwick Library Screening Results, K. pneumoniae (fold increase in extracellular AK activity)
[4] = cutoff for positive-scoring molecules 3-fold increase, read-out: AK-based Prestwick Library Screening Results, P. aeruginosa (fold increase in extracellular AK activity)
[5] = cutoff for positive-scoring molecules 3-fold increase, read-out: AK-based Prestwick Library Screening Results, A. baumannii (fold increase in extracellular AK activity)
[6] = cutoff for positive-scoring molecules 3-fold increase, read-out: AK-based Prestwick Library Screening Results, E. coli (fold increase in extracellular AK activity)
[7] = cutoff for positive-scoring molecules 3-fold increase, read-out: AK-based Prestwick Library Screening Results, E. faecium (fold increase in extracellular AK activity)
[8] = cutoff for positive-scoring molecules 3-fold increase, read-out: AK-based Prestwick Library Screening Results, E. cloacae (fold increase in extracellular AK activity)
[9] = cutoff for positive-scoring molecules 3-fold increase, read-out: AK-based Prestwick Library Screening Results, S. aureus (fold increase in extracellular AK activity)
[10] = 384-well format, cutoff for positive-scoring molecules 3-fold increase, read-out: AK-based Prestwick Library Screening Results, K. pneumoniae (increase in extracellular AK activity)
[11] = 384-well format, cutoff for positive-scoring molecules 3-fold increase, read-out: AK-based Prestwick Library Screening Results, P. aeruginosa (increase in extracellular AK activity)
[12] = 384-well format, cutoff for positive-scoring molecules 3-fold increase, read-out: AK-based Prestwick Library Screening Results, A. baumannii (increase in extracellular AK activity)
[13] = 384-well format, cutoff for positive-scoring molecules 3-fold increase, read-out: AK-based Prestwick Library Screening Results, E. coli (increase in extracellular AK activity)
[14] = 384-well format, cutoff for positive-scoring molecules 3-fold increase, read-out: AK-based Prestwick Library Screening Results, E. faecium (increase in extracellular AK activity)
[15] = 384-well format, cutoff for positive-scoring molecules 3-fold increase, read-out: AK-based Prestwick Library Screening Results, E. cloacae (increase in extracellular AK activity)
[16] = 384-well format, cutoff for positive-scoring molecules 3-fold increase, read-out: AK-based Prestwick Library Screening Results, S. aureus (increase in extracellular AK activity)

OCc1cc(C(O)CNCCCCCCOCCCCc2ccccc2)ccc1O (centres unmarked) [Salmeterol]
fold induction at 50 µM (K. pneumoniae; [3]): 1.1 | fold induction at 50 µM (P. aeruginosa; [4]): 1.2 | fold induction at 50 µM [1, 5]: 1.5 | fold induction at 50 µM (E. coli; [6]): 1.4 | fold induction at 50 µM (E. faecium; [7]): 1 | fold induction at 50 µM (E. cloacae; [8]): 1.5 | fold induction at 50 µM [2, 9]: 1.9

Cn1c(=O)c2c(ncn2CCO)n(C)c1=O [Etofylline]
fold induction at 50 µM (K. pneumoniae; [10]): 0.6 | fold induction at 50 µM (P. aeruginosa; [11]): 0.7 | fold induction at 50 µM [1, 12]: 0.8 | fold induction at 50 µM (E. coli; [13]): 0.8 | fold induction at 50 µM (E. faecium; [14]): 1 | fold induction at 50 µM (E. cloacae; [15]): 0.9 | fold induction at 50 µM [2, 16]: 0.8

CC(CNC1CCCCC1)OC(=O)c1ccccc1 (centres unmarked) [Hexylcaine hydrochloride]
fold induction at 50 µM (K. pneumoniae; [3]): 1 | fold induction at 50 µM (P. aeruginosa; [4]): 1.1 | fold induction at 50 µM [1, 5]: 1.3 | fold induction at 50 µM (E. coli; [6]): 1.2 | fold induction at 50 µM (E. faecium; [7]): 1 | fold induction at 50 µM (E. cloacae; [8]): 1.4 | fold induction at 50 µM [2, 9]: 1.3

NC(N)=NCCCCN=C(N)N [Arcaine sulfate]
fold induction at 50 µM (K. pneumoniae; [3]): 0.7 | fold induction at 50 µM (P. aeruginosa; [4]): 0.8 | fold induction at 50 µM [1, 5]: 0.8 | fold induction at 50 µM (E. coli; [6]): 0.7 | fold induction at 50 µM (E. faecium; [7]): 0.6 | fold induction at 50 µM (E. cloacae; [8]): 1.2 | fold induction at 50 µM [2, 9]: 0.9

C[C@@H]1O[C@@H](O[C@H]2C[C@@H](O)[C@]3(CO)[C@H]4[C@H](O)C[C@]5(C)[C@@H](C6=CC(=O)OC6)CC[C@]5(O)[C@@H]4CC[C@]3(O)C2)[C@H](O)[C@H](O)[C@H]1O.O.O.O.O.O.O.O.O [Strophantine octahydrate]
AK-based Prestwick Library Screening Results, K. pneumoniae (fold increase in extracellular AK activity) (K. pneumoniae; planktonic, […]): 0.9 | AK-based Prestwick Library Screening Results, P. aeruginosa (fold increase in extracellular AK activity) (P. aeruginosa; planktonic, […]): 1.1 | AK-based Prestwick Library Screening Results, A. baumannii (fold increase in extracellular AK activity) ([1]; planktonic, […]): 1.2 | AK-based Prestwick Library Screening Results, E. coli (fold increase in extracellular AK activity) (E. coli; planktonic, […]): 1.2 | AK-based Prestwick Library Screening Results, E. faecium (fold increase in extracellular AK activity) (E. faecium; planktonic, […]): 1.0 | AK-based Prestwick Library Screening Results, E. cloacae (fold increase in extracellular AK activity) (E. cloacae; planktonic, […]): 1.7 | AK-based Prestwick Library Screening Results, S. aureus (fold increase in extracellular AK activity) ([2]; planktonic, […]): 1.1

CCOC(=O)C1=C(C)NC(C)=C(C(=O)OC)C1c1cccc([N+](=O)[O-])c1 (centres unmarked) [Nitrendipine]
fold induction at 50 µM (K. pneumoniae; planktonic, cutoff for positive-scoring molecules 3-fold increase, read-out: AK-based Prestwick Library Screening Results, K. pneumoniae (fold increase in extracellular AK activity)): 0.8 | fold induction at 50 µM (P. aeruginosa; planktonic, cutoff for positive-scoring molecules 3-fold increase, read-out: AK-based Prestwick Library Screening Results, P. aeruginosa (fold increase in extracellular AK activity)): 0.9 | fold induction at 50 µM ([1]; planktonic, cutoff for positive-scoring molecules 3-fold increase, read-out: AK-based Prestwick Library Screening Results, A. baumannii (fold increase in extracellular AK activity)): 0.9 | fold induction at 50 µM (E. coli; planktonic, cutoff for positive-scoring molecules 3-fold increase, read-out: AK-based Prestwick Library Screening Results, E. coli (fold increase in extracellular AK activity)): 0.8 | fold induction at 50 µM (E. faecium; planktonic, cutoff for positive-scoring molecules 3-fold increase, read-out: AK-based Prestwick Library Screening Results, E. faecium (fold increase in extracellular AK activity)): 0.9 | fold induction at 50 µM (E. cloacae; planktonic, cutoff for positive-scoring molecules 3-fold increase, read-out: AK-based Prestwick Library Screening Results, E. cloacae (fold increase in extracellular AK activity)): 1.4 | fold induction at 50 µM ([2]; planktonic, cutoff for positive-scoring molecules 3-fold increase, read-out: AK-based Prestwick Library Screening Results, S. aureus (fold increase in extracellular AK activity)): 0.4

C[C@H]1C(=O)O[C@@H]2CCN3CC=C(COC(=O)[C@](C)(O)[C@]1(C)O)[C@H]23 [Monocrotaline]
fold induction at 50 µM (K. pneumoniae; planktonic, […], read-out: AK-based Prestwick Library Screening Results, K. pneumoniae (fold increase in extracellular AK activity)): 1 | fold induction at 50 µM (P. aeruginosa; planktonic, […], read-out: AK-based Prestwick Library Screening Results, P. aeruginosa (fold increase in extracellular AK activity)): 1.2 | fold induction at 50 µM ([1]; planktonic, […], read-out: AK-based Prestwick Library Screening Results, A. baumannii (fold increase in extracellular AK activity)): 1.2 | fold induction at 50 µM (E. coli; planktonic, […], read-out: AK-based Prestwick Library Screening Results, E. coli (fold increase in extracellular AK activity)): 1.3 | fold induction at 50 µM (E. faecium; planktonic, […], read-out: AK-based Prestwick Library Screening Results, E. faecium (fold increase in extracellular AK activity)): 1.1 | fold induction at 50 µM (E. cloacae; planktonic, […], read-out: AK-based Prestwick Library Screening Results, E. cloacae (fold increase in extracellular AK activity)): 1.3 | fold induction at 50 µM ([2]; planktonic, […], read-out: AK-based Prestwick Library Screening Results, S. aureus (fold increase in extracellular AK activity)): 1

N[C@@H](Cc1ccc(O)c(O)c1)C(=O)O [Levodopa]
fold induction at 50 µM (K. pneumoniae; [10]): 0.6 | fold induction at 50 µM (P. aeruginosa; [11]): 0.5 | fold induction at 50 µM [1, 12]: 0.7 | fold induction at 50 µM (E. coli; [13]): 0.6 | fold induction at 50 µM (E. faecium; [14]): 0.8 | fold induction at 50 µM (E. cloacae; [15]): 0.8 | fold induction at 50 µM [2, 16]: 0.5

CCN[C@H]1C[C@H](C)S(=O)(=O)c2sc(S(N)(=O)=O)cc21 [Dorzolamide hydrochloride]
fold induction at 50 µM (K. pneumoniae; planktonic K. pneumoniae, positive cutoff 3-fold increase, read-out: AK-based Prestwick library screening result, K. pneumoniae (fold increase in extracellular AK activity)): 1.1 | fold induction at 50 µM (P. aeruginosa; planktonic P. aeruginosa, positive cutoff 3-fold increase, read-out: AK-based Prestwick library screening result, P. aeruginosa (fold increase in extracellular AK activity)): 0.9 | fold induction at 50 µM ([1]; planktonic A. baumannii, positive cutoff 3-fold increase, read-out: AK-based Prestwick library screening result, A. baumannii (fold increase in extracellular AK activity)): 1.2 | fold induction at 50 µM (E. coli; planktonic E. coli, positive cutoff 3-fold increase, read-out: AK-based Prestwick library screening result, E. coli (fold increase in extracellular AK activity)): 1.1 | fold induction at 50 µM (E. faecium; planktonic E. faecium, positive cutoff 3-fold increase, read-out: AK-based Prestwick library screening result, E. faecium (fold increase in extracellular AK activity)): 2.3 | fold induction at 50 µM (E. cloacae; planktonic E. cloacae, positive cutoff 3-fold increase, read-out: AK-based Prestwick library screening result, E. cloacae (fold increase in extracellular AK activity)): 1.3 | fold induction at 50 µM ([2]; planktonic S. aureus, positive cutoff 3-fold increase, read-out: AK-based Prestwick library screening result, S. aureus (fold increase in extracellular AK activity)): 1

CC(=O)CCCCn1c(=O)c2c(ncn2C)n(C)c1=O [Pentoxifylline]
fold induction at 50 µM (K. pneumoniae; [10]): 0.7 | fold induction at 50 µM (P. aeruginosa; [11]): 0.8 | fold induction at 50 µM [1, 12]: 0.9 | fold induction at 50 µM (E. coli; [13]): 0.8 | fold induction at 50 µM (E. faecium; [14]): 0.9 | fold induction at 50 µM (E. cloacae; [15]): 1.1 | fold induction at 50 µM [2, 16]: 0.8

COC(=O)[C@H]1[C@H]2C[C@H]3c4[nH]c5ccccc5c4CCN3C[C@@H]2CC[C@@H]1O.Cl [Corynanthine hydrochloride]
AK-based Prestwick Library Screening Results, K. pneumoniae (increase in extracellular AK activity) (K. pneumoniae; planktonic K. pneumoniae, cutoff for positive-scoring molecules 3-fold increase): 0.6 | AK-based Prestwick Library Screening Results, P. aeruginosa (increase in extracellular AK activity) (P. aeruginosa; planktonic P. aeruginosa, cutoff for positive-scoring molecules 3-fold increase): 0.7 | AK-based Prestwick Library Screening Results, A. baumannii (increase in extracellular AK activity) ([1]; planktonic A. baumannii, cutoff for positive-scoring molecules 3-fold increase): 0.6 | AK-based Prestwick Library Screening Results, E. coli (increase in extracellular AK activity) (E. coli; planktonic E. coli, cutoff for positive-scoring molecules 3-fold increase): 0.7 | AK-based Prestwick Library Screening Results, E. faecium (increase in extracellular AK activity) (E. faecium; planktonic E. faecium, cutoff for positive-scoring molecules 3-fold increase): 1.0 | AK-based Prestwick Library Screening Results, E. cloacae (increase in extracellular AK activity) (E. cloacae; planktonic E. cloacae, cutoff for positive-scoring molecules 3-fold increase): 0.8 | AK-based Prestwick Library Screening Results, S. aureus (increase in extracellular AK activity) ([2]; planktonic S. aureus, cutoff for positive-scoring molecules 3-fold increase): 0.7
